Assay results from patent US20090035440A1, “Compositions comprising polyphenol” (Conopco, Inc. d/b/a Unilever, priority 2007, published 2009).

Columns and labels:
[1] = Dynamic light scattering particle size of EGCG/complexing agent mixed systems (Example 1); assay type: physicochemical; details: 0.6 wt % EGCG and 0.6 wt % CA; DLS at 25° C., undiluted; volume-averaged; one value per peak where more than one peak
Procedure: (§1) Stock solutions containing 1.2 wt % EGCG were prepared by adding the powder to de-ionized water (conductivity=18.2 MΩ.cm) and stirring at 40° C. […] Stock solutions of pectin, were prepared by dissolving powder in de-ionized water at 80° C. for 1 hour and then cooling to 25° C. After dissolving the material, the pH of all samples, except for the WPI, was adjusted to 5.0 using 0.01 HCl or 0.1 M NaOH. The WPI was used at a pH of 6.5 to avoid precipitation of the whey proteins. In all cases the maximum ionic strength would remain below 10 mM. After setting the pH, mixed systems were prepared by quickly adding a fixed weight of the stock EGCG-solution into the same weight of complexing agent (CA)-solution under continuous stirring. Thus the final samples contained 0.6 wt % EGCG and 0.6 wt % CA.
DLS measurements were performed within 4 hours after sample preparation using a Zetasizer Nano ZS instrument (Malvern Instruments, Malvern, UK). This instrument records intensity fluctuations of scattered light at a fixed angle from clear samples containing particles between 1 and 1000 nm in size. These fluctuations are converted into an autocorrelation function spanning time scales between picoseconds and seconds. The instrument software fits intensity- and volume-weighed size distributions to the recorded autocorrelations. Samples were measured without any dilution at 25° C. […]

[2] = 1H-NMR estimate of non-complexed (free) EGCG in mixed systems with complexing agent; assay type: binding; details: 0.6 wt % EGCG and 0.6 wt % CA in de-ionized water; pH 5.0 (WPI pH 6.5); 1H-NMR at 27° C.
Procedure: as §1
Proton-NMR measurements were carried out on 0.6 ml samples in 5 mm NMR tubes at 27° C. using a Bruker AV600 NMR spectrometer. Prior to measurement, 5% (w/w) of D2O was added to each sample. The spectra were acquired with presaturation of the water signal using the Bruker pulse program: noesygppr1d. A signal at ˜4.7 ppm was from residual water and was ignored for data analysis purposes. […] This calibration curve was used to estimate the amount of non-complexed (or “free”) EGCG in the samples.

[3] = Appearance of EGCG/complexing agent mixed systems (Example 1); assay type: physicochemical; details: 0.6 wt % EGCG and 0.6 wt % CA
Procedure: as §1

Row | Average Particle Size (nm) [1] [nm] | Appearance [3] | Molecule | Amount of EGCG free in solution (wt % of total EGCG) [2]
1 | 2 | Transparent | O=C(O)[C@@H]1CCCN1 [L-proline] | 100 wt % of total EGCG
2 |  |  | poly-L-proline | 0 wt % of total EGCG
